# In US20190151418A1, “COMBINATION OF CALCIUM-PHOSPHATE-CONTAINING POROUS COMPOSITE AND PTH” (TOYOBO CO., LTD., priority 2016, published 2019):
# Test system: standardized full-thickness bone defect (diameter: about 9 mm) in the calvarium
# Assay: Test Example 1: rat calvarium bone defect, OCP/Col or β-TCP/Col implant + teriparatide subcutaneous injection
# Format: in vivo, Male Wistar rats
# From the text: Male Wistar rats (12 weeks old) were each intraperitoneally anesthetized, and a skin incision and a periosteal incision were made in the calvarium part to expose the calvarium. A standardized full-thickness bone defect (diameter: about 9 mm), for which spontaneous recovery could not be expected, was created. Then, one disc-shaped OCP/Col produced in Production Example 2 or one disc-shaped β-TCP/Col produced in Production Example 3 was implanted therein. As the control, rats in which only a bone defect was created, and no sample was implanted (untreated group) were prepared. After the sample was implanted, the periosteum and skin were sutured, and the surgery was completed. […] In the rats of the teriparatide subcutaneous injection group, 10 μg/kg of the teriparatide prepared in Production Example 5 was subcutaneously injected immediately after surgery and every day thereafter. Subcutaneous injection was performed in such a manner that the thawed teriparatide solution was sucked by a 1-mL syringe (27G injection needle), the back skin was sterilized with a dilute Hibitane solution, and then a considerable amount of teriparatide solution was injected subcutaneously in the back. The observation period after surgery was 8 weeks for each group, and 5 rats were used in each period.
# Four weeks and eight weeks after surgery, tomography was carried out on the rats in the living state using an X-ray CT scanner for experimental animals (Latheta LCT-200, produced by Hitachi Aloka Medical, Ltd.) at a low X-ray tube voltage, and the state of new bone formation in the bone defect site was carefully examined. Similarly, after CT photography 8 weeks after surgery, the rats were euthanized under anesthesia with an excess amount of pentobarbital. The calvarium and surrounding tissue were taken, and immersed and fixed in 0.1 M phosphate-buffered 4% paraformaldehyde (pH 7.4). The extracted samples were photographed (20 kV, 5 mA) with a soft X-ray camera (CMBW-2, produced by Softex Co., Ltd.), and then decalcified with 10% EDTA to prepare paraffin samples. Then, tissue sections (thickness: 6 μm) cut in the frontal plane were prepared, and a histological search was performed by hematoxylin-eosin staining. Further, using the multiple tissue sections corresponding to the center of the defect of each sample, the ratio of new bone (n-Bone %) in the created defect was examined by histological quantification. Variance analysis, etc., were conducted using the average value and standard deviation of n-Bone % in each group, and a significance test was conducted. The significance level was set at 5%.
# [1] = 8 weeks after surgery, hematoxylin-eosin, PTH(+) = teriparatide 10 μg/kg s.c. every day, PTH(−) = none
structure (smiles),measurement,setting,value
CC[C@H](C)[C@H](NC(=O)[C@H](CCC(=O)O)NC(=O)[C@H](CO)NC(=O)[C@@H](NC(=O)[C@@H](N)CO)C(C)C)C(=O)N[C@@H](CCC(N)=O)C(=O)N[C@@H](CC(C)C)C(=O)N[C@@H](CCSC)C(=O)N[C@@H](Cc1cnc[nH]1)C(=O)N[C@@H](CC(N)=O)C(=O)N[C@@H](CC(C)C)C(=O)NCC(=O)N[C@@H](CCCCN)C(=O)N[C@@H](Cc1cnc[nH]1)C(=O)N[C@@H](CC(C)C)C(=O)N[C@@H](CC(N)=O)C(=O)N[C@@H](CO)C(=O)N[C@@H](CCSC)C(=O)N[C@@H](CCC(=O)O)C(=O)N[C@@H](CCCN=C(N)N)C(=O)N[C@H](C(=O)N[C@@H](CCC(=O)O)C(=O)N[C@@H](Cc1c[nH]c2ccccc12)C(=O)N[C@@H](CC(C)C)C(=O)N[C@@H](CCCN=C(N)N)C(=O)N[C@@H](CCCCN)C(=O)N[C@@H](CCCCN)C(=O)N[C@@H](CC(C)C)C(=O)N[C@@H](CCC(N)=O)C(=O)N[C@@H](CC(=O)O)C(=O)N[C@H](C(=O)N[C@@H](Cc1cnc[nH]1)C(=O)N[C@@H](CC(N)=O)C(=O)N[C@@H](Cc1ccccc1)C(=O)O)C(C)C)C(C)C [teriparatide],X-ray photographs of isolated bone defect sites (FIG. 1),"8 weeks after surgery, PTH(+) = teriparatide 10 μg/kg s.c. every day",radiopaque images in the defects were equally scarce
same,"stained pathological specimens, high-magnification images (FIG. 4)",[1],thin new bone extended from the defect margins
same,"stained pathological specimens, low-magnification (×1.25) images (FIG. 3)",[1],thin bone tissue extending from the defect margins (▾) and connective tissue surrounding the bone tissue
same,ratio of new bone (n-Bone %) in the defect,"8 weeks after surgery, histological quantification (FIG. 5), PTH(+) = teriparatide 10 μg/kg subcutaneously every day, PTH(−) = no injection, average ± standard deviation",31.1±10.2%
same,X-ray photographs (cross sections) of calvarium shot with the rats alive (FIG. 2),PTH(+) = teriparatide 10 μg/kg s.c. every day,"radiopaque images extending from the defect margins (∇) were observed; however, their thickness was less than that of the existing bone"
same,new bone formation (conclusion from FIGS. 1 to 5),"teriparatide 10 μg/kg s.c. every day, 8 weeks",new bone formation was not observed
